Entries after “also recorded” stand apart in the source; their conditions may differ.
Tests used:
Format in all cases: biochemical, Taxus chinensis
[1] = system: acetyl transferase (acetyl CoA 10-hydroxytaxane-O-acetyl transferase); assay: Substrate specificity of the purified acetyl transferase (conversion of taxane substrates with [2-14C]acetyl CoA); settings: for acetylation / acceptance as substrate by the enzyme (in words): purified acetyl transferase, acetyl donor acetyl CoA; for Conversion, based on the conversion of 10-deacetyltaxuyunnanin C / pkat (enzyme activity with the substrate): Enzyme: Phenylsepharose eluate (225-fold purified)
Description: A sufficient amount of the enzyme solution to be tested was pipetted into 50 μl of tris buffer (0.8 M, pH 8.5) in an Eppendorf cap. 30 μl of purified acetyl CoA (5 nmol of unlabelled and 0.02 μCi-[2-^14C]acetyl coenzyme A) and 15 nmol of a 3 mM stock solution of 10-deacetyltaxuyunnanin C dissolved in DMSO were then added (for the control only the corresponding amount of DMSO instead of this taxane). The mixture was incubated at 35° C. for 30 minutes and then acidified using 20 μl of 12% H2SO4, the taxuyunnanin C formed was extracted using 600 μl of tert-butyl methyl ether (10 min. in an overhead shaker) and the mixture was then centrifuged (4 min at 14,000 rpm in an Eppendorf centrifuge). The unreacted [2-^14C]acetyl CoA which was still present remained in the aqueous phase. 500 μl of the organic phase were evaporated to dryness in a stream of air, which simultaneously removed any [2-^14C]acetic acid present which, owing to the earlier acidification, was present as the acid and was therefore volatile. Using a scintillation counter (Multipurpose Scintillation Counter LS 6500, from Beckmann) or a thin-layer radioscanner (Automatic TLC Linear Analyser, from Berthold), the type and the amount of the product formed were determined. The former apparatus was used to determine the conversion and thus the activity of the enzyme using the cpm values counted. With the aid of thin-layer chromatography (TLC) (mobile phase: chloroform:acetonitrile 7:3) and the subsequent evaluation using a radioscanner, it was possible to check whether the radioactivity measured using the scintillation counter did indeed correspond to a peak in the region of the Rf value of the expected product.
To check the substrate specificity of the purified acetyl transferase, various compounds having a taxane skeleton were used as substrate.
10-DAB is converted with a rate of conversion of 85%, compared to 10-deacetyltaxuyunnanin C to baccatin III.
Conversion of Various Substrates, Based on the Conversion of 10-deacetyltaxuyunnanin C
Enzyme: Phenylsepharose eluate (225-fold purified)

acetyl transferase [2] = assay: KM value determination for acetyl coenzyme A (Lineweaver-Burk); settings: phenylsepharose eluate, 225-fold enriched; 30 min at 35° C., pH 8.5
Description: The affinity of acetyl transferase to acetyl coenzyme A can be described by the KM value, which was determined using the phenylsepharose eluate.
100 μl of acetyl transferase (0.25 pcat, 40 ng of protein, 225-fold enriched)
5 μl of 3 mM 10-deacetyltaxuyunnanin C (15 nmol)
30 min at 35° C. Evaluation was subsequently carried out by extraction with tert-butyl methyl ether and the use of a scintillation counter. By plotting the measured values in a doubly reciprocal manner according to Lineweaver and Burk, the KM value for acetyl coenzyme A was determined at 61 μM.

acetyl transferase [3] = assay: KM value determination for 10-deacetyltaxuyunnanin C (Lineweaver-Burk); settings: phenylsepharose eluate, 225-fold enriched; 30 min at 35° C., pH 8.5
Description: To gain information about the affinity of the acetyl transferase to 10-deacetyltaxuyunnanin C, the KM value of the phenylsepharose eluate was determined.
100 μl of acetyl-transferase (0.25 pcat, 40 ng of protein, 225-fold enriched)
30 μl of acetyl coenzyme A (5 nmol, additionally containing 0.02 μCi[2-^14C]acetylCoA)
30 min at 35° C.; evaluation of the radioactivity, which had been extracted using tert-butyl methyl ether, using a scintillation counter.
By plotting the measured results in a doubly reciprocal manner according to Lineweaver and Burk, the KM value for 10-deacetyltaxuyunnanin C was determined graphically to be 23 μM.

Compound | Conversion, based on the conversion of 10-deacetyltaxuyunnanin C [1] [%] | pkat (enzyme activity with the substrate) [1] [pkat] | other results
CC(=O)O[C@@]12CO[C@@H]1C[C@H](O)[C@@]1(C)C(=O)[C@H](O)C3=C(C)[C@@H](OC(=O)[C@H](O)[C@@H](NC(=O)c4ccccc4)c4ccccc4)C[C@@](O)([C@@H](OC(=O)c4ccccc4)[C@H]21)C3(C)C [10-deacetyltaxol] |  |  | acetylation / acceptance as substrate by the enzyme (in words) [1]: not acetylated; also recorded: acetylation does not take place
CC(=O)SCCNC(=O)CCNC(=O)[C@H](O)C(C)(C)COP(=O)(O)OP(=O)(O)OC[C@H]1O[C@@H](n2cnc3c(N)ncnc32)[C@H](O)[C@@H]1OP(=O)(O)O [acetyl coenzyme A] |  |  | Km (acetyl transferase [2]): 61 µM
10,14-deacetyltaxuyunnanin C [10,14-Desacetyltaxuyunnanin C] | 102 | 1.14 | 
C=C1C(O)CCC2(C)CC(O)C3=C(C)CC(O)C(C(OC(C)=O)C12)C3(C)C (centres unmarked) [5,10,14-Desacetyltaxuyunnanin C, 5,10,14-deacetyltaxuyunnanin C] | 88 | 0.99 | 
CC(=O)OC12COC1CC(O)C1(C)C(=O)C(O)C3=C(C)C(O)C(O)C(O)(C(OC(=O)c4ccccc4)C21)C3(C)C (centres unmarked) [14-Hydroxy-10-DAB III, 14-hydroxy-10-deacetylbaccatin III] | 97 | 1.09 | 
CC=C(C)C(=O)NC(c1ccccc1)C(O)C(=O)OC1CC2(O)C(OC(=O)c3ccccc3)C3C4(OC(C)=O)COC4CC(O)C3(C)C(=O)C(O)C(=C1C)C2(C)C (centres unmarked) [10-deacetylcephalomannin] |  |  | acetylation / acceptance as substrate by the enzyme (in words) [1]: not acetylated; also recorded: acetylation does not take place
CC[Si](CC)(CC)O[C@H]1C[C@H]2OC[C@@]2(OC(C)=O)[C@H]2[C@H](OC(=O)c3ccccc3)[C@]3(O)C[C@H](O)C(C)=C([C@@H](O)C(=O)[C@]12C)C3(C)C [7-TES-10-DAB III] | 0 | 0 | acetylation / acceptance as substrate by the enzyme (in words) [1]: not recognized as substrates
C=C1[C@@H](OC(C)=O)CC[C@@]2(C)C[C@H](O)C3=C(C)C[C@H](OC(C)=O)[C@@H]([C@@H](OC(C)=O)[C@H]12)C3(C)C [10-Desacetyltaxuyunnanin C, 10-deacetyltaxuyunnanin C] | 100 | 1.12 | Km (acetyl transferase [3]): 23 µM
CC(=O)O[C@@]12CO[C@@H]1C[C@H](O)[C@@]1(CO)C(=O)[C@H](O)C3=C(C)[C@@H](O)C[C@@](O)([C@@H](OC(=O)c4ccccc4)[C@H]21)C3(C)C [19-Hydroxy-10-DAB III, 19-hydroxy-10-DAB III] | 38 | 0.43 | 
CC(=O)OC12COC1CC(O)C1(C)C(=O)C(O)C3=C(C)C(O)CC(O)(C(OC(=O)c4ccccc4)C21)C3(C)C (stereo not drawn) [10-epi-10-DAB III] | 0 | 0 | 
CC(=O)O[C@@]12CO[C@@H]1C[C@H](OC(=O)OC(C)(C)C)[C@@]1(C)C(=O)[C@H](O)C3=C(C)[C@@H](O)C[C@@](O)([C@@H](OC(=O)c4ccccc4)[C@H]21)C3(C)C [7-BOC-10-DAB III] | 2 | 2 | acetylation / acceptance as substrate by the enzyme (in words) [1]: not recognized as substrates
C=C1C(O)CCC2(C)CC(O)C3=C(C)CC(O)C(C(O)C12)C3(C)C (centres unmarked) [2,5,10,14-Desacetyltaxuyunnanin C, 2,5,10,14-deacetyltaxuyunnanin C] | 53 | 0.59 | 
CC(=O)O[C@@]12CO[C@@H]1C[C@H](O)[C@@]1(C)C(=O)[C@H](O)C3=C(C)[C@@H](O)C[C@@](O)([C@@H](OC(=O)c4ccccc4)[C@H]21)C3(C)C [10-Desacetylbaccatin III, 10-deacetylbaccatin III] | 80 | 0.9 | Conversion, based on the conversion of 10-deacetyltaxuyunnanin C ([1]; listed as 10-DAB): 85%
2,10,14-deacetyltaxuyunnanin C [2,10,14-Desacetyltaxuyunnanin C] | 81 | 0.91 | 
